In article PMC7791840, “The R-enantiomer of ketorolac reduces ovarian cancer tumor burden in vivo” (BMC Cancer, 2021):
Counter-ions that a name gives are not always drawn.

Key:
[1] = Enantiomer stability of ketorolac in the oral dosage form (HPLC); type: physicochemical; conditions: transgenic dough pills stored at 4 °C
Method: As an alternative to gavage for oral delivery, drug was administered in pills formed from transgenic dough (BioServ, Flemington, NJ, cat #S3472). […] Briefly, R-Ketorolac was dissolved in 100% ethanol to a concentration of 5 mg/ml. Bromophenol blue was added to solutions at a final concentration of 0.1% as an aid to ensure even distribution of drug into the dough. Placebo pills were made using an equivalent volume of 100% ethanol containing 0.1% bromophenol blue. Dough was then pressed using 100 mg pill forms (Gallipot, St. Paul, MN). Pills were allowed to dry at room temperature overnight then removed from the forms and stored at 4 °C. Ketorolac, as racemic compound or individual enantiomer, was stable for at least 3 months in the pills as determined by high performance liquid chromatography (HPLC) (Additional File 2: Figure S1).
Cell Culture and Reagents
(§1) SKOV3ip cells were modified to express GFP-Rac1 by transfection with pcDNA3-EGFP-Rac1-wt (Catalog # 12980, Addgene) as described for SKOV3ip-GFP cells under Methods. Rac1 overexpression quantification and verification was completed by western blot and qPCR. […]
(§2) Omental tissue was harvested and stored on ice in PBS for no more than 1 hour before analysis. Omenta were blotted dry on lab tissue and weight was measured using an analytical balance (Denver Instruments Company, A -160). […]

[2] = system: ovarian tumor cell; set-up: method as in PMID 26071482, PMID 26558612, PMID 26206334; conditions: cited from earlier work
[3] = mouse, in vivo
Method: Foxn1^nu NU /J athymic nude female mice, aged 6–9 weeks, were purchased from The Jackson Laboratory (Bar Harbor, ME, stock number 002019). […] Mice were maintained at a controlled temperature of 22–23 °C, with a 12-h light/12-h dark cycle. Water and standard mouse chow were available ad libitum. […] Their health status was monitored throughout the experiment. […] Mice were euthanized using a CO2 chamber in accordance with the recommendation of the Panel on Euthanasia of the American Veterinary Medical Association. Cervical dislocation was then carried out to confirm death before tumor analysis and tissue collection.

[4] = Ketorolac enantiomers in mouse blood/serum by HPLC after two-week treatment; type: in vivo, mice
Excerpt: For two-week tumor studies, 1 × 10^6 non-treated SKOV3ip-GFP cells were i.p. injected. All mice started R-ketorolac treatment one day prior to cell injection and continued treatment until conclusion of the study 14 days later. Mice were imaged using a Light Tools imaging system (Synopsys Optical Solutions, Westminster CO) with long pass GFP filters. Three images per mouse were captured to ensure all tumors were counted. Green fluorescent tumors were identified and counted in the peritoneal cavity as single tumors if there was a distinct border of non-fluorescent tissue. […] Blood was collected via cardiac puncture and ketorolac enantiomer concentrations were measured by HPLC analysis as described in Supplemental Methods (Additional File 1: Supplemental Methods). […]
as §1, §2
Samples were then centrifuged at 4000x g for 10 minutes at 4°C. […] Ketorolac was detected using a UV spectrometer set at UV310. […]

| Stability in pills [1] | SMILES | Ovarian tumor cell adhesion, migration and invadopodia formation [2] | Cytotoxicity ([2]; ovarian tumor cells) | Body weight [3] | Accumulation with repeated dosing ([4]; mice, daily dosing 14 days) | concentration at 14 day ([4]; mouse, serum, at conclusion of chronic administration (14 day) tumor study, 1 mg/kg twice daily oral, read-out: Steady state blood concentration of R-ketorolac) |
| --- | --- | --- | --- | --- | --- | --- |
| at least 3 months | O=C(c1ccccc1)c1ccc2n1CCC2C(=O)O (stereo not drawn) [R−/S-ketorolac, ketorolac tromethamine salt] | – | – | – | – | – |
| – | O=C(c1ccccc1)c1ccc2n1CC[C@H]2C(=O)O [R-ketorolac] | inhibited ovarian tumor cell adhesion, migration and invadopodia formation | without cytotoxicity | No significant difference in body weight | does not appear to accumulate with repeated dosing | ~1400 ng/mL |
